Experimental data published in the NIST ThermoML archive (doi:10.1021/je030101n).

Assay: xn = mol fraction of the nth substance listed
Settings: 101.3 kPa, Liquid; for viscosity: Capillary tube (Ostwald / Ubbelohde) method; for mass density: Pycnometric method

N#Cc1ccccc1 [benzonitrile] + CN(C)C=O
Settings	mass density, 298.15 K [kg/m3]	mass density, 303.15 K [kg/m3]	mass density, 308.15 K [kg/m3]	mass density, 313.15 K [kg/m3]	viscosity, 298.15 K [mPa·s]	viscosity, 303.15 K [mPa·s]	viscosity, 308.15 K [mPa·s]	viscosity, 313.15 K [mPa·s]
x2 = 0	1000.9	996.4	991.9	987.2	1.171	1.126	1.068	1.001
x2 = 0.1335	995.4	990.9	986.4	981.7	1.17	1.124	1.064	0.99
x2 = 0.1981	992.7	988.2	983.7	979	1.169	1.119	1.056	0.985
x2 = 0.3191	987.4	982.9	978.4	973.8	1.152	1.097	1.033	0.963
x2 = 0.3873	984.3	979.8	975.3	970.6	1.134	1.078	1.015	0.948
x2 = 0.4907	979	974.5	970	965.3	1.099	1.042	0.98	0.918
x2 = 0.6061	972.2	967.7	963.2	958.5	1.049	0.992	0.932	0.875
x2 = 0.7176	965.2	960.6	956	951.2	0.992	0.936	0.879	0.825
x2 = 0.7997	959.6	955	950.4	945.6	0.943	0.889	0.834	0.781
x2 = 0.9209	950.6	946	941.4	936.5	0.862	0.811	0.761	0.715

Nc1ccccc1 [aniline] + CN(C)C=O
Settings	mass density, 298.15 K [kg/m3]	mass density, 303.15 K [kg/m3]	mass density, 308.15 K [kg/m3]	mass density, 313.15 K [kg/m3]	viscosity, 298.15 K [mPa·s]	viscosity, 303.15 K [mPa·s]	viscosity, 308.15 K [mPa·s]	viscosity, 313.15 K [mPa·s]
x2 = 0	1017.2	1012.9	1008.6	1004.2	3.69	3.19	2.8	2.42
x2 = 0.1293	1010.3	1006	1001.7	997.3	3.296	2.864	2.521	2.186
x2 = 0.2582	1005.8	1001.5	997.2	992.9	2.908	2.54	2.242	1.952
x2 = 0.3548	1000.5	996.2	991.9	987.6	2.621	2.298	2.034	1.779
x2 = 0.4642	993.9	989.5	985.1	980.7	2.3	2.025	1.8	1.583
x2 = 0.5537	987.6	983.2	978.9	974.5	2.04	1.803	1.611	1.423
x2 = 0.6614	978.8	974.3	969.8	965.3	1.731	1.543	1.387	1.237
x2 = 0.7558	969.2	964.8	960.4	955.9	1.466	1.319	1.194	1.079
x2 = 0.8302	961.4	957	952.6	948.1	1.257	1.145	1.044	0.954
x2 = 0.9123	952.3	947.7	943.1	938.4	1.038	0.955	0.88	0.819
